Data published in patent publication US20130344065A1, “Combination Treatment with VEGF-C Antagonists” (Vegenics Pty Ltd, priority 2010, published 2013).
Where “and” joins values, the source holds several entries; their conditions need not be identical. Equal entries are not always repeated.

Tests used:
[1] = tested on: KP4 human pancreatic tumors; assay: KP4 pancreatic xenograft (Example 8); conditions: VGX-100 40 mg/kg and/or Avastin 10 mg/kg; for % T/C: after 30 days
Description: VGX-100 was administered at 20 or 40 mg/kg for single therapy and at 40/mg/kg for combination therapy.
To initiate the study, 5×10^6 of KP4 cells suspended in 100 μl of a mixture of medium/Matrigel (1:1) were subcutaneously implanted to the nude mice in the right flank region. Cancer cells were implanted into 90 mice. Animals were monitored for tumor growth daily after cell implantation. When tumor volumes reached 80-100 mm^3, mice were randomized into 5 groups of 10 mice each using only mice having tumor volumes closest to the mean value. Mice with tumor volumes too big or too small were excluded from the study. Tumor volumes were measured using the formula V=L×W×H×π/6, where L and W represented the longer and shorter diameters of the tumor and H represented the height of the tumor. The treatment with drugs was initiated on the day after randomization. […] All treatments were administered intraperitoneally twice weekly for 30 days.
Throughout the entire study, tumor volumes were measured twice weekly and body weights once weekly. […] Unscheduled sacrifices were performed if tumor volumes reached>2,000 mm^3, animals lost>25% of their original body weights, tumor ulceration appeared, or mice became moribund. At the end of the experiment, tumors were removed, embedded in Optimal Cutting Temperature (OCT), and stored at −80° C. for IHC analysis. Gross examination was conducted on liver, lung, spleen, kidneys, testes, and prostate. If no abnormal observation was detected on these organs, the tissues were discarded.
Tumor size was measured 2-3 times weekly with calipers. Size of tumors relative to controls is calculated after 30 days of treatment.

[2] = tested on: PC-3 human prostate carcinoma xenografts; assay: PC-3 xenograft combination therapy (Example 3, first study); conditions: for Tumor Growth Delay: T-C, evaluation size 750 mg; for % T/C Day 22: VGX-100 40 mg/kg IP, bevacizumab 10 mg/kg IP, docetaxel 10 mg/kg IV, median tumor mass vs control; for % TFS (tumor free survivors): at termination, Day 160; for Complete regression / Partial regression / Tumor free survivor: yes/no; for Total CR / Total PR / Total TFS: number of animals of 10;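 as to all read-outs here: subcutaneous PC-3 tumors in male athymic NCr nude mice aged 6-7 weeks, combination agents dosed within 30 min of each other, animals euthanized once tumors exceeded 2 g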
Description: Docetaxel was administered intravenously at 10 mg/kg weekly for three injections.
HIgG1 Isotype control-humanised antibody (6.4-12.36 mg/ml) and VGX-100 (5.53 and 5.75 mg/ml) were provided as frozen colorless stock solutions in Dulbecco's phosphate buffered saline (DPBS) and stored from light at −80° C. The stock solutions were thawed and stored at 4° C. when treatment began. The dosing solutions (40 mg/kg in 0.2 ml/20 g body weight) were prepared by diluting the stock solution with DPBS. The resulting formulations were clear with pH values ranging from 7.02-7.21. The dosing vials were kept on wet ice during dosing, gently pipetted and not aspirated through a needle except during administration. Dosing solutions were prepared weekly in DPBS and stored protected from light at 4° C. while not in use.
Docetaxel (lot no. D9A095) was manufactured by Sanofi-Aventis and obtained from McKesson as a pale yellow solution in 50% EtOH/50% Tween80. It was stored protected from light at 4° C. Docetaxel was diluted as directed on the package insert with the provided diluent (sterile water) to produce a clear and colorless 10 mg/ml stock solution. On each treatment day, a fresh 10 mg/ml stock was prepared and further diluted with water to achieve the appropriate concentration. The resulting solution was clear and colorless with a pH of 7.16.
All test articles were administered within two hours of preparation. For groups receiving combination therapy, the drugs were administered in the order presented in Table 1 and within 30 minutes of one another.
Male NCR(NCRNU-M) athymic mice were obtained from Taconic. They were 6-7 weeks old on Day 1 of the experiment. The mice were fed irradiated Rodent Diet 5053 (LabDiet™) and water ad libitum. The mice were housed in static cages with Bed-O'Cobs™ bedding inside Biobubble® Clean Rooms that provide H.E.P.A filtered air into the bubble environment at 100 complete air changes per hour. All treatments, body weight determinations, and tumor measurements were carried out in the bubble environment. The environment was controlled to a temperature range of 21.1±1.1° C. (70±2° F.) and a humidity range of 30-70%.
Test mice were implanted subcutaneously on Day 0. […] Mice with tumors in excess of 2 g or with ulcerated tumors were euthanized, as were those found in obvious distress or in a moribund condition.
PC-3 cells were obtained from ATCC and expanded using Ham's F-12 media supplemented with 10% fetal bovine serum and 1% penicillin-streptomycin-glutamine in 5% CO2 atmosphere at 37° C. When expansion was complete, the cells were collected using Trypsin (Cell Gro®), the trypsin neutralized, and the cells pooled for implantation. The PC-3 (Passage 10) cell suspension was counted using trypan blue exclusion with a hemacytometer. The cell suspension was reduced to a pellet using an Eppendorf 5810R centrifuge at 1500 rpm (300×g) for 5 minutes at 4° C. A 2.5×10^7 cells/ml suspension was prepared in 50% serum free media and 50% Matrigel®. Pre-injection viability was 97.7%. Test animals were implanted subcutaneously on Day 0 with 5×10^6 cells/animal (0.2 ml) using a 27-gauge needle and syringe. The cell suspension was maintained on wet ice to minimize the loss of viability and inverted frequently to maintain a uniform cell suspension during the inoculation procedure.
Treatments began on Day 8, when the mean estimated tumor mass for all groups in the experiment was 129 mg (range of group means, 123-134 mg). All animals weighed≧19.2 g at the initiation of therapy. Mean group body weights at first treatment were matched (range of group means, 21.5-22.8 g). All animals were dosed according to individual body weight on the day of treatment (0.2 ml/20 g).

[3] = tested on: U87MG human glioblastoma tumors; assay: U87MG glioblastoma xenograft, combination (Example 7); format: in vivo, nude mice; conditions: VGX-100 40 mg/kg, bevacizumab 10 mg/kg, administered alone
Description: This experiment was conducted broadly in accordance with Example 3, except that U87MG glioblastoma cells were substituted for PC-3 prostate cancer cells. Cells from a human glioblastoma tumor line (U87MG) were implanted subcutaneously into mice and grown until the tumors reached an average size of approximately 150 mg. […] There were 10 animals per treatment group.

[4] = tested on: metastatic colorectal cancer; conditions: cited from earlier work
[5] = tumor doubling time, individual animals
[6] = subjects progressed following 5-FU therapy
[7] = Mayo Clinic or Roswell Park regimen, newly diagnosed

For “Bevacizumab: recombinant humanized VEGF-A monoclonal antibody”, the “Mean Tumor Vol. at D30 (mm3)” value [1] was 596.7 mm3, the “% T/C” value ([1]; listed as Avastin) was 30.4% and the “% T/C” value ([1]; listed as bevacizumab) was 30.4%. For the same compound, the “Time to evaluation size” value ([2]; 750 mg, individual animals) was 36.3 days and 24.4 days and 25.8 days and 33.0 days and 30.5 days and 25.2 days and 25.4 days and 44.3 days and 18.0 days and 22.7 days, the “Tumor Growth Delay” value ([2]; same doses) was 5.6 days and the “% T/C Day 22” value [2] was 70%. The “% TFS (tumor free survivors)” value ([2]; same doses) was 0%, the “Td” value ([2]; group mean) was 12.2 days and the “Time to evaluation size” value ([2]; group mean) was 28.6 days. The “Td” value ([2]; group median) was 9.6 days, the “Time to evaluation size” value ([2]; group median) was 25.6 days and the Complete regression ([2]; individual animals) was “no”. The Partial regression ([2]; individual animals) was “no”, the Tumor free survivor ([2]; individual animals) was “no” and the “Total CR” value [2] was 0. For the same compound, the “Total PR” value [2] was 0, the “Total TFS” value [2] was 0 and the “% CR (complete regression)” value ([2]; same doses) was 0%. The “% PR (partial regression)” value ([2]; same doses) was 0%, the “Apparent Net Tumor Cell Kill (logs)” value ([2]; same doses) was −4.91 logs and the “Tumor regressions” value ([2]; same doses) was “No tumor regressions were observed”. The “Td” value [2, 5] was 16.9 days and 7.4 days and 7.5 days and 13.7 days and 16.8 days and 10.6 days and 8.6 days and 27.8 days and 4.8 days and 8.4 days and the “Effect on tumor growth” value [3] was “only a minor effect”.

In the case of `CCc1c2c(nc3ccc(OC(=O)N4CCC(N5CCCCC5)CC4)cc13)-c1cc3c(c(=O)n1C2)COC(=O)[C@]3(O)CC` [irinotecan], the “Prolongation of survival vs best supportive care” value [4, 6] is listed as 2.8 month and the “Prolongation of survival vs infusional 5-FU” value [4, 6] is listed as 2.2 month.

In the case of 5-FU/leucovorin, the Median survival [4, 7] is listed as 12-14 months and the “Median time to disease progression” value [4, 7] is listed as 4-5 months.

In the case of `CC(=O)O[C@@]12CO[C@@H]1C[C@H](O)[C@@]1(C)C(=O)[C@H](O)C3=C(C)[C@@H](OC(=O)[C@H](O)[C@@H](NC(=O)OC(C)(C)C)c4ccccc4)C[C@@](O)([C@@H](OC(=O)c4ccccc4)[C@H]21)C3(C)C` [Docetaxel, docetaxel], the “Time to evaluation size” value ([2]; 750 mg, individual animals) is reported as 81.0 days (2×) and >160 days (2×) and 62.3 days and 89.1 days and 72.1 days and 69.0 days and 62.5 days and 66.5 days, the “Tumor Growth Delay” value ([2]; same doses) is reported as 56.5 days and the “% T/C Day 22” value [2] is reported as 8%. For the same compound, the “% T/C: tumor burden in treatment group compared to control” value ([2]; at day 160) was 82.4%, the “% TFS (tumor free survivors)” value ([2]; same doses) was “Twenty percent and 20%” and the “Td” value ([2]; group mean) was 8.8 days. For the same compound, the “Time to fold growth EP” value ([2]; group mean) was 86.0 days, the “Td” value ([2]; group median) was 8.8 days and the “Time to evaluation size” value ([2]; group median) was 76.5 days. The “Time to fold growth EP” value ([2]; group median) was 69.6 days, the “Time to fold growth EP” value ([2]; individual animals) was 78.1 days and >160 days (2×) and 57.4 days and 81.6 days and 65.4 days and 58.5 days and 60.0 days and 73.3 days and 65.9 days and the Complete regression ([2]; individual animals) was “yes”. For the same compound, the Partial regression ([2]; individual animals) was “no”, the Tumor free survivor ([2]; individual animals) was “no (8×) and yes (2×)” and the “Total CR” value [2] was 10. The “Total PR” value [2] was 0, the “Total TFS” value [2] was 2 and the “% CR (complete regression)” value ([2]; same doses) was 100%. The “% PR (partial regression)” value ([2]; same doses) was 0%, the “Anticancer activity of regimen” value ([2]; same doses) was “highly active” and the “Apparent Net Tumor Cell Kill (logs)” value ([2]; same doses) was 1.13 logs. The “Average Survival” value ([2]; study to day 160) was 108.6 days and the “Td” value [2, 5] was 5.1 days and 8.5 days and 9.4 days and 9.1 days and 13.2 days and 6.5 days and 13.4 days and 5.0 days.
